Assay results: ChEMBL document CHEMBL3351759, “Synthesis and antitumor activity of novel 3-oxo-23-hydroxybetulinic acid derivatives” (Eur J Med Chem, 2014)

Key:
Format in all cases: functional, cell-based
[1] = Antiproliferative activity against human HL60 cells after 72 hrs MTT assay; conditions: HL-60, 72 h
[2] = Antiproliferative activity against human Bel7402 cells after 72 hrs MTT assay; conditions: Bel-7402, 72 h
[3] = Antiproliferative activity against human SF763 cells after 72 hrs MTT assay; conditions: SF763, 72 h
[4] = system: HeLa; test: Antiproliferative activity against human HeLa cells after 72 hrs MTT assay
[5] = system: B16; test: Antiproliferative activity against mouse B16 cells after 72 hrs MTT assay; conditions: B16, 72 h

Structure (SMILES) | IC50 [4] [µM] | IC50 [5] [µM] | IC50 [1] [µM] | IC50 [2] [µM] | IC50 [3] [µM]
C=C(C)[C@@H]1CC[C@]2(C(=O)O)CC[C@]3(C)[C@H](CC[C@@H]4[C@@]5(C)C[C@H](CO)[C@H](O)[C@@](C)(CO)[C@@H]5CC[C@]43C)[C@@H]12 | 70.8 | 47.9 | 69 | 59.1 | 50.2
C=C(C)[C@@H]1CC[C@]2(C(=O)OCc3ccccc3)CC[C@]3(C)[C@H](CC[C@@H]4[C@@]5(C)C[C@H](CO)[C@H](O)[C@@](C)(CO)[C@@H]5CC[C@]43C)[C@@H]12 | 51.4 | 30.5 | 47.9 | 41.7 | 39.1
C=C(C)[C@@H]1CC[C@]2(C(=O)OCc3ccccc3)CC[C@]3(C)[C@H](CC[C@@H]4[C@@]5(C)C[C@H](OC(C)=O)[C@H](OC(C)=O)[C@@](C)(COC(C)=O)[C@@H]5CC[C@]43C)[C@@H]12 | 46 | 21.6 | 46.1 | 34.5 | 32.1
C=C(C)[C@@H]1CC[C@]2(C(=O)OCc3ccccc3)CC[C@]3(C)[C@H](CC[C@@H]4[C@@]5(C)C[C@H](O)[C@H](O)[C@@](C)(CO)[C@@H]5CC[C@]43C)[C@@H]12 | 50.4 | 26.4 | 49.9 | 39.6 | 33.5
C=C(C)[C@@H]1CC[C@]2(C(=O)N3CCOCC3)CC[C@]3(C)[C@H](CC[C@@H]4[C@@]5(C)CCC(=O)[C@@](C)(COC(C)=O)[C@@H]5CC[C@]43C)[C@@H]12 | 10.3 | 8.16 | 12.1 | 10.5 | 10.1
C=C(C)[C@@H]1CC[C@]2(C(=O)O[C@@H]3O[C@H](CO)[C@@H](O)[C@H](O)[C@H]3O)CC[C@]3(C)[C@H](CC[C@@H]4[C@@]5(C)CCC(=O)[C@@](C)(CO)[C@@H]5CC[C@]43C)[C@@H]12 | 31 | 14.7 | 26.6 | 22.1 | 21.4
C=CCOC(=O)[C@]12CC[C@@H](C(=C)C)[C@@H]1[C@H]1CC[C@@H]3[C@@]4(C)CCC(=O)[C@@](C)(CO)[C@@H]4CC[C@@]3(C)[C@]1(C)CC2 | 22.8 | 11.8 | 21.8 | 19 | 15.1
C=C(C)[C@@H]1CC[C@]2(C(=O)OCc3ccc(-c4ccccc4C#N)cc3)CC[C@]3(C)[C@H](CC[C@@H]4[C@@]5(C)CCC(=O)[C@@](C)(CO)[C@@H]5CC[C@]43C)[C@@H]12 | 15.2 | 10 | 14.3 | 10.3 | 10.1
C=C(C)[C@@H]1CC[C@]2(C(=O)OCC)CC[C@]3(C)[C@H](CC[C@@H]4[C@@]5(C)CCC(=O)[C@@](C)(CO)[C@@H]5CC[C@]43C)[C@@H]12 | 37.1 | 19.4 | 31.9 | 30.9 | 28.9
C=C(C)[C@@H]1CC[C@]2(C(=O)OCC(=O)OCC)CC[C@]3(C)[C@H](CC[C@@H]4[C@@]5(C)CCC(=O)[C@@](C)(CO)[C@@H]5CC[C@]43C)[C@@H]12 | 40.8 | 25.7 | 37.1 | 30.7 | 24.7
C=C(C)[C@@H]1CC[C@]2(C(=O)OCc3ccccc3)CC[C@]3(C)[C@H](CC[C@@H]4[C@@]5(C)CCC(=O)[C@@](C)(CO)[C@@H]5CC[C@]43C)[C@@H]12 | 26.1 | 14.1 | 23.7 | 20.1 | 19.5
C=C(C)[C@@H]1CC[C@]2(C(=O)O)CC[C@]3(C)[C@H](CC[C@@H]4[C@@]5(C)CC/C(=N\NS(=O)(=O)c6ccc(C)cc6)[C@@](C)(CO)[C@@H]5CC[C@]43C)[C@@H]12 | 44.3 | 33.3 | 46.3 | 39.4 | 25.2
C=C(C)[C@@H]1CC[C@]2(C(=O)OCc3ccccc3)CC[C@]3(C)[C@H](CC[C@@H]4[C@@]5(C)CC/C(=N\NS(=O)(=O)c6ccc(C)cc6)[C@@](C)(CO)[C@@H]5CC[C@]43C)[C@@H]12 | 21.9 | 16.2 | 29.1 | 26.4 | 18.4
C=C(C)[C@@H]1CC[C@]2(C(=O)OCC(=O)OCC)CC[C@]3(C)[C@H](CC[C@@H]4[C@@]5(C)CC/C(=N\O)[C@@](C)(CO)[C@@H]5CC[C@]43C)[C@@H]12 | 30 | 17.8 | 33.7 | 30.6 | 26.1
C=C(C)[C@@H]1CC[C@]2(C(=O)OCC(=O)O)CC[C@]3(C)[C@H](CC[C@@H]4[C@@]5(C)CC/C(=N\O)[C@@](C)(CO)[C@@H]5CC[C@]43C)[C@@H]12 | 23.8 | 17.4 | 30.5 | 27.2 | 17.5
C=C(C)[C@@H]1CC[C@]2(C(=O)OCC)CC[C@]3(C)[C@H](CC[C@@H]4[C@@]5(C)CC/C(=N\O)[C@@](C)(CO)[C@@H]5CC[C@]43C)[C@@H]12 | 31.7 | 17.6 | 31.6 | 30.8 | 28.6
C=CCOC(=O)[C@]12CC[C@@H](C(=C)C)[C@@H]1[C@H]1CC[C@@H]3[C@@]4(C)CC/C(=N\O)[C@@](C)(CO)[C@@H]4CC[C@@]3(C)[C@]1(C)CC2 | 25 | 13.1 | 24.1 | 22.6 | 15.5
COc1cccc2c1C(=O)c1c(O)c3c(c(O)c1C2=O)C[C@@](O)(C(=O)CO)C[C@@H]3O[C@H]1C[C@H](N)[C@H](O)[C@H](C)O1 [DOXORUBICIN] | 0.21 | 0.18 | – | 0.22 | –

Now from value to compound, other results behind:

IC50 [4] [µM] | IC50 [5] [µM] | Structure (SMILES) | IC50 [1] [µM] | IC50 [2] [µM] | IC50 [3] [µM]
61.5 | 39 | C=C(C)[C@@H]1CC[C@]2(C(=O)O)CC[C@]3(C)[C@H](CC[C@@H]4[C@@]5(C)C[C@H](COC(C)=O)[C@H](OC(C)=O)[C@@](C)(COC(C)=O)[C@@H]5CC[C@]43C)[C@@H]12 | 59.9 | 50.2 | 46.1
67.8 | 36.9 | C=C(C)[C@@H]1CC[C@]2(C(=O)O)CC[C@]3(C)[C@H](CC[C@@H]4[C@@]5(C)C[C@H](O)[C@H](O)[C@@](C)(CO)[C@@H]5CC[C@]43C)[C@@H]12 | 66.3 | 56.8 | 53.9
59.1 | 30.5 | C=C(C)[C@@H]1CC[C@]2(C(=O)O)CC[C@]3(C)[C@H](CC[C@@H]4[C@@]5(C)C[C@H](OC(C)=O)[C@H](OC(C)=O)[C@@](C)(COC(C)=O)[C@@H]5CC[C@]43C)[C@@H]12 | 58.1 | 49.6 | 45.8
20 | 11.3 | C=C(C)[C@@H]1CC[C@]2(C(=O)O)CC[C@]3(C)[C@H](CC[C@@H]4[C@@]5(C)C=C(O)C(=O)[C@@](C)(CO)[C@@H]5CC[C@]43C)[C@@H]12 | 22 | 19.6 | 14.3
24.1 | 15 | C=C(C)[C@@H]1CC[C@]2(C(=O)O)CC[C@]3(C)[C@H](CC[C@@H]4[C@@]5(C)C=C(OC(C)=O)C(=O)[C@@](C)(COC(C)=O)[C@@H]5CC[C@]43C)[C@@H]12 | 29.8 | 25.4 | 18.9
11.7 | 9.02 | C=C(C)[C@@H]1CC[C@]2(C(=O)Oc3ccc(C#N)cc3)CC[C@]3(C)[C@H](CC[C@@H]4[C@@]5(C)CCC(=O)[C@@](C)(COC(C)=O)[C@@H]5CC[C@]43C)[C@@H]12 | 11.6 | 9.23 | 9.11
17.1 | 10.7 | C=C(C)[C@@H]1CC[C@]2(C(=O)NCC(=O)OC)CC[C@]3(C)[C@H](CC[C@@H]4[C@@]5(C)CCC(=O)[C@@](C)(COC(C)=O)[C@@H]5CC[C@]43C)[C@@H]12 | 19.2 | 15.6 | 13.6
24.4 | 18.1 | C=C(C)[C@@H]1CC[C@]2(C(=O)OCCO)CC[C@]3(C)[C@H](CC[C@@H]4[C@@]5(C)CCC(=O)[C@@](C)(COC(C)=O)[C@@H]5CC[C@]43C)[C@@H]12 | 31.1 | 27.4 | 22.1
32.1 | 17.1 | C=C(C)[C@@H]1CC[C@]2(C(=O)O)CC[C@]3(C)[C@H](CC[C@@H]4[C@@]5(C)CCC(=O)[C@@](C)(COC(C)=O)[C@@H]5CC[C@]43C)[C@@H]12 | 30.2 | 29.4 | 28.9
40.8 | 23.8 | C=C(C)[C@@H]1CC[C@]2(C(=O)O)CC[C@]3(C)[C@H](CC[C@@H]4[C@@]5(C)CC/C(=N\O)[C@@](C)(CO)[C@@H]5CC[C@]43C)[C@@H]12 | 36.9 | 32.1 | 31.8
